{"source": "the kinase profiling compilation of Christmann-Franck et al. (2016)", "assay_in_all_cases": "KINOMEscan competition binding", "key": {"CDC2L2 (human)": {"target": "CDC2L2 (human) (UniProt Q9UQ88)"}, "TNNI3K (human)": {"target": "TNNI3K (human) (UniProt Q59H18)"}, "MAP3K12 (human)": {"target": "MAP3K12 (human) (UniProt Q12852)"}, "EPHA4 (human)": {"target": "EPHA4 (human) (UniProt P54764)"}, "FGR (human)": {"target": "FGR (human) (UniProt P09769)", "sequence (P09769 whole entry, looked up)": "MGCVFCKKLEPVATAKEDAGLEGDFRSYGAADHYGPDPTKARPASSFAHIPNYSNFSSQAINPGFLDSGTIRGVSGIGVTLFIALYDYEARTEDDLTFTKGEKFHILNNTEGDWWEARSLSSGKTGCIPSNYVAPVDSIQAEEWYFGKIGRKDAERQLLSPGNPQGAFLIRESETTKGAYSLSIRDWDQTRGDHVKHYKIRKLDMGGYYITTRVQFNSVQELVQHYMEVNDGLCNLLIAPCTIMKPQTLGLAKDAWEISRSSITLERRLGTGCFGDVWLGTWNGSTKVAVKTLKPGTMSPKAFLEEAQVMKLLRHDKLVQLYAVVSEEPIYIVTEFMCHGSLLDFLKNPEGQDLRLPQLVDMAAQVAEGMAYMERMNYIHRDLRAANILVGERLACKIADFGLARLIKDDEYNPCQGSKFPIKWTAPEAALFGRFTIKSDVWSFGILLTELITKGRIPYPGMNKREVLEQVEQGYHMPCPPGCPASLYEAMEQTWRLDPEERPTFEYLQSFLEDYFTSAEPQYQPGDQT"}, "CLK2 (human)": {"target": "CLK2 (human) (UniProt P49760)"}, "RAF1 (human)": {"target": "RAF1 (human) (UniProt P04049)"}, "CDK7 (human)": {"target": "CDK7 (human) (UniProt P50613)"}, "LIMK2 (human)": {"target": "LIMK2 (human) (UniProt P53671)"}, "CAMK1D (human)": {"target": "CAMK1D (human) (UniProt Q8IU85)", "sequence (Q8IU85 whole entry, looked up)": "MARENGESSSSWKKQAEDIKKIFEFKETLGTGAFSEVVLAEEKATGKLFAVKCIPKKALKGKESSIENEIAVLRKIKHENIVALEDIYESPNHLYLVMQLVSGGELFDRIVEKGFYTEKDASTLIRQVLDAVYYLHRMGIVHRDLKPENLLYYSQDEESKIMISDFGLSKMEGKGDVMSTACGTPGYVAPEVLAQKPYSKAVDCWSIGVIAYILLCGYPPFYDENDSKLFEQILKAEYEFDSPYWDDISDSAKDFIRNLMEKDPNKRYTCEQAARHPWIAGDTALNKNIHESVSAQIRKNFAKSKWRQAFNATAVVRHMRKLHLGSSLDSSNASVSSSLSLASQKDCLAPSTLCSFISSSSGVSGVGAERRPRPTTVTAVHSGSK"}, "CLK4 (human)": {"target": "CLK4 (human) (UniProt Q9HAZ1)", "sequence (Q9HAZ1 whole entry, looked up)": "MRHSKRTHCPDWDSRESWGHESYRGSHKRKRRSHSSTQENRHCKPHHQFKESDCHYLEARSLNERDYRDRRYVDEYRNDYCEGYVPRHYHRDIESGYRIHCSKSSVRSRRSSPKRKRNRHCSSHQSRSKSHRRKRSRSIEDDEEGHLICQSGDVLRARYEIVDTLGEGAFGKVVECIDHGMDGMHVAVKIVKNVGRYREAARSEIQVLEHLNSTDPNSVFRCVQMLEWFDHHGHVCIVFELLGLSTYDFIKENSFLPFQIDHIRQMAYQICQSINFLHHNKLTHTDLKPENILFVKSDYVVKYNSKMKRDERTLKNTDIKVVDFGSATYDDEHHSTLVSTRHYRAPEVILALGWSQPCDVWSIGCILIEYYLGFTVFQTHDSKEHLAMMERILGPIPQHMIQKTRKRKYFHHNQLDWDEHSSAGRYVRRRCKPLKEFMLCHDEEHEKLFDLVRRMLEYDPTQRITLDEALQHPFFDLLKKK"}, "TYRO3 (human)": {"target": "TYRO3 (human) (UniProt Q06418)"}, "MAP4K2 (human)": {"target": "MAP4K2 (human) (UniProt Q12851)"}, "IRAK1 (human)": {"target": "IRAK1 (human) (UniProt P51617)", "sequence (P51617 whole entry, looked up)": "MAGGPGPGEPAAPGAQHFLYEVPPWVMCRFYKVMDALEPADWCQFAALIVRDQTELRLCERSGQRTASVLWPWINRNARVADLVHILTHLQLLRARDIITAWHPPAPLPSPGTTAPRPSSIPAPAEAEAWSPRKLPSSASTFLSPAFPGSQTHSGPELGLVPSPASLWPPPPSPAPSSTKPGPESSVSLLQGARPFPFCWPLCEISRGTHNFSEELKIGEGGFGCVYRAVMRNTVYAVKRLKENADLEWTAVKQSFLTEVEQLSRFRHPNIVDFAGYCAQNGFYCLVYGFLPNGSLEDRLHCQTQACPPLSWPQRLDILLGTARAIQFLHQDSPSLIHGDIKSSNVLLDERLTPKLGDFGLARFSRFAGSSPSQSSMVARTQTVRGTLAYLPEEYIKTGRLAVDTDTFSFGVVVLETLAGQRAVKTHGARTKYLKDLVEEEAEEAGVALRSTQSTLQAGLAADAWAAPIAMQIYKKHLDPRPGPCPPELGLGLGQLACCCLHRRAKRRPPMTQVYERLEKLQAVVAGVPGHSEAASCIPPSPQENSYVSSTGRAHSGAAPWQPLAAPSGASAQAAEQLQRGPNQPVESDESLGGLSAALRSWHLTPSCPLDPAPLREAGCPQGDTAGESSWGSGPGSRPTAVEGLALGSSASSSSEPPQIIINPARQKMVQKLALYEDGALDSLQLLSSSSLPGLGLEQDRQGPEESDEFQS"}, "TAOK1 (human)": {"target": "TAOK1 (human) (UniProt Q7L7X3)"}, "BLK (human)": {"target": "BLK (human) (UniProt P51451)"}, "MKNK2 (human)": {"target": "MKNK2 (human) (UniProt Q9HBH9)"}, "TNK1 (human)": {"target": "TNK1 (human) (UniProt Q13470)"}, "MAPK15 (human)": {"target": "MAPK15 (human) (UniProt Q8TD08)"}, "PIM2 (human)": {"target": "PIM2 (human) (UniProt Q9P1W9)"}, "RIPK4 (human)": {"target": "RIPK4 (human) (UniProt P57078)"}, "CDC42BPA (human)": {"target": "CDC42BPA (human) (UniProt Q5VT25)"}, "EPHA7 (human)": {"target": "EPHA7 (human) (UniProt Q15375)"}, "[1]": {"target": "FLT3 (human), P36888 [N841I]"}, "[2]": {"target": "ABL1 (human), P00519 [H396P]"}, "CDC42BPG (human)": {"target": "CDC42BPG (human) (UniProt Q6DT37)", "sequence (Q6DT37 whole entry, looked up)": "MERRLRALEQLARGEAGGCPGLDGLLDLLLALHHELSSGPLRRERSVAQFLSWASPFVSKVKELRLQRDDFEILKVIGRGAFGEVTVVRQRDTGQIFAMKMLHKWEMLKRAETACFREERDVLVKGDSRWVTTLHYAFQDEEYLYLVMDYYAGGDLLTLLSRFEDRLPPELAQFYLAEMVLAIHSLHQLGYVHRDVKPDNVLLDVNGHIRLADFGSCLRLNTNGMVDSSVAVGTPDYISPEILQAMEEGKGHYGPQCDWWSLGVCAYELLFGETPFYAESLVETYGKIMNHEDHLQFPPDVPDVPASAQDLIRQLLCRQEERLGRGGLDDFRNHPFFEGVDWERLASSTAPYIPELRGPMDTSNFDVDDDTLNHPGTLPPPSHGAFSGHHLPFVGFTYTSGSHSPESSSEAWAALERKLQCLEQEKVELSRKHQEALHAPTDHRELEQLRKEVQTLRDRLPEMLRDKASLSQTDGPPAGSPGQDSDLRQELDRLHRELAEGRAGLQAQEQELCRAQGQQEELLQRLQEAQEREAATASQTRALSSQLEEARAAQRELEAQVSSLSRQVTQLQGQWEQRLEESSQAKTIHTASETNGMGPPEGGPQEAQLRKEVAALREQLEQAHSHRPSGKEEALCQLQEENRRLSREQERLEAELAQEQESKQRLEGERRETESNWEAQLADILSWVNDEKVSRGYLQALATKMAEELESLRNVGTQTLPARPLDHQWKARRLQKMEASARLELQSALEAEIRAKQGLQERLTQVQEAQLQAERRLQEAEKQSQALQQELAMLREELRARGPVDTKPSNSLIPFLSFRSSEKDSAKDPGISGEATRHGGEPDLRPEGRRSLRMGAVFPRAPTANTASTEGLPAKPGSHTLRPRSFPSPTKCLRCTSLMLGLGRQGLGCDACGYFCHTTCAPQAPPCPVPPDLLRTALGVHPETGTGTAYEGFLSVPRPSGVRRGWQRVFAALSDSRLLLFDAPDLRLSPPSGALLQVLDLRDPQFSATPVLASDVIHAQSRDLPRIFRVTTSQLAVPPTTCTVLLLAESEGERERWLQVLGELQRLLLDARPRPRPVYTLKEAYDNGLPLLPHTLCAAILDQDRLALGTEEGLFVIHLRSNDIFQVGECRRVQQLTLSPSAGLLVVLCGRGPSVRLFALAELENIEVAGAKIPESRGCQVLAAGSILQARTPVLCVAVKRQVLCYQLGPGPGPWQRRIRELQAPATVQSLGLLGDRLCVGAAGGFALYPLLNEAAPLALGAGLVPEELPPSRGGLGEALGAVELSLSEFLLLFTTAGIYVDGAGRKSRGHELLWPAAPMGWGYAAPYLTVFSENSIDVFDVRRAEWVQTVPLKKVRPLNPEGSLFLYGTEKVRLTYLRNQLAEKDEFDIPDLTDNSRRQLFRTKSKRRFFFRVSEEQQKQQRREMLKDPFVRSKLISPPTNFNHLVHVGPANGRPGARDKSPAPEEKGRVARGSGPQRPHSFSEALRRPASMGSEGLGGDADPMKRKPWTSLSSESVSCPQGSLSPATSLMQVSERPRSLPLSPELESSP"}, "[3]": {"target": "FLT3 (human), P36888 [D835Y]"}, "ERN1 (human)": {"target": "ERN1 (human) (UniProt O75460)", "sequence (O75460 whole entry, looked up)": "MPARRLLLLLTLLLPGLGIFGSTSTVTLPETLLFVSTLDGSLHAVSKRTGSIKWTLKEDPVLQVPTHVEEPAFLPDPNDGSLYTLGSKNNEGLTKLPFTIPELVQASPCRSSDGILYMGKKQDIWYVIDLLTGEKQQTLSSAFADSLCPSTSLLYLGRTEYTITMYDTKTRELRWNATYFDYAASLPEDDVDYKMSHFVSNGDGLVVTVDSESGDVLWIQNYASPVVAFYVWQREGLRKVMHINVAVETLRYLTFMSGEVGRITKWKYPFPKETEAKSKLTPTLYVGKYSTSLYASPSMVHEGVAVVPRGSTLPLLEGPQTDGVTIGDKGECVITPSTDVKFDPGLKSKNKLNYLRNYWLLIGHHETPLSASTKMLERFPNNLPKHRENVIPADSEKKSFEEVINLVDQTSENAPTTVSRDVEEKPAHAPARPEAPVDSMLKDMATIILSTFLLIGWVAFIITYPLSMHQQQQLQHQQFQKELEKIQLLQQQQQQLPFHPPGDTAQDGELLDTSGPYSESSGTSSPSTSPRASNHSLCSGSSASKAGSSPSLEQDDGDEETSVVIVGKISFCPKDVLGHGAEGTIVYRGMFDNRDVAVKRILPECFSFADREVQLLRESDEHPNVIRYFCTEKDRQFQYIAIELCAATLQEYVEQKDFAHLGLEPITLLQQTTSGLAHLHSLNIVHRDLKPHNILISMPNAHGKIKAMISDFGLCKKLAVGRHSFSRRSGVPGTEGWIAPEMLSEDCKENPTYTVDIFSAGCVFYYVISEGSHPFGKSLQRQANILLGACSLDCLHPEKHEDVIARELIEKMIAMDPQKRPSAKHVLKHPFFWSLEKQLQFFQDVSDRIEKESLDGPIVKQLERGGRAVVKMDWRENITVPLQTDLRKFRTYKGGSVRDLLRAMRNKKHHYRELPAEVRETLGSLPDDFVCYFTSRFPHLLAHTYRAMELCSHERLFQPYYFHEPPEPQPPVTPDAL"}, "[4]": {"target": "ABL1 (human), P00519 [Y253F]"}, "MAPK8 (human)": {"target": "MAPK8 (human) (UniProt P45983)"}, "TNK2 (human)": {"target": "TNK2 (human) (UniProt Q07912)"}, "EPHA1 (human)": {"target": "EPHA1 (human) (UniProt P21709)"}, "[5]": {"target": "JAK2 JH1 catalytic (human) (UniProt O60674)"}, "MAP3K7 (human)": {"target": "MAP3K7 (human) (UniProt O43318)"}, "CSK (human)": {"target": "CSK (human) (UniProt P41240)"}, "PLK4 (human)": {"target": "PLK4 (human) (UniProt O00444)"}, "HIPK2 (human)": {"target": "HIPK2 (human) (UniProt Q9H2X6)"}, "MATK (human)": {"target": "MATK (human) (UniProt P42679)"}, "FLT3 (human)": {"target": "FLT3 (human) (UniProt P36888)"}, "HIPK4 (human)": {"target": "HIPK4 (human) (UniProt Q8NE63)"}, "MAPK14 (human)": {"target": "MAPK14 (human) (UniProt Q16539)", "sequence (Q16539 whole entry, looked up)": "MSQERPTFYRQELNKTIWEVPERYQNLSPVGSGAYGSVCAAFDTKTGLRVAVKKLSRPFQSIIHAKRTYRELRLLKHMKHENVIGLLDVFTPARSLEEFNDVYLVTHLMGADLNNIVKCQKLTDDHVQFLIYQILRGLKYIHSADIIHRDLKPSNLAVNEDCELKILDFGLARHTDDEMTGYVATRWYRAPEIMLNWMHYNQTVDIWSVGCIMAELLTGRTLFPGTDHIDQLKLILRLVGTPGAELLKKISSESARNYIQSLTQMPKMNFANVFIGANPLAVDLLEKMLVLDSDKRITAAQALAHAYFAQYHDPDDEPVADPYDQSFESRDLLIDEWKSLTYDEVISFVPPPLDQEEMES"}}}
{"compound": "COc1cc2ncnc(Oc3cccc(NC(=O)Nc4cc(C(C)(C)C(F)(F)F)on4)c3)c2cc1OC", "values": [{"measurement": "Kd", "setting": "CDC2L2 (human)", "result": 170, "unit": "nM"}, {"measurement": "Kd", "setting": "TNNI3K (human)", "result": 28, "unit": "nM"}, {"measurement": "Kd", "setting": "MAP3K12 (human)", "result": 35, "unit": "µM"}, {"measurement": "Kd", "setting": "EPHA4 (human)", "result": 31, "unit": "nM"}, {"measurement": "Kd", "setting": "FGR (human)", "result": 110, "unit": "nM"}, {"measurement": "Kd", "setting": "CLK2 (human)", "result": 21, "unit": "µM"}, {"measurement": "Kd", "setting": "RAF1 (human)", "result": 39, "unit": "nM"}, {"measurement": "Kd", "setting": "CDK7 (human)", "result": 520, "unit": "nM"}, {"measurement": "Kd", "setting": "LIMK2 (human)", "result": 3.8, "unit": "µM"}, {"measurement": "Kd", "setting": "CAMK1D (human)", "result": 3.8, "unit": "µM"}, {"measurement": "Kd", "setting": "CLK4 (human)", "result": 16, "unit": "µM"}, {"measurement": "Kd", "setting": "TYRO3 (human)", "result": 1500, "unit": "nM"}, {"measurement": "Kd", "setting": "MAP4K2 (human)", "result": 980, "unit": "nM"}, {"measurement": "Kd", "setting": "IRAK1 (human)", "result": 9.6, "unit": "µM"}, {"measurement": "Kd", "setting": "TAOK1 (human)", "result": 2100, "unit": "nM"}, {"measurement": "Kd", "setting": "BLK (human)", "result": 7.6, "unit": "nM"}, {"measurement": "Kd", "setting": "MKNK2 (human)", "result": 71, "unit": "nM"}, {"measurement": "Kd", "setting": "TNK1 (human)", "result": 150, "unit": "nM"}, {"measurement": "Kd", "setting": "MAPK15 (human)", "result": 94, "unit": "nM"}, {"measurement": "Kd", "setting": "PIM2 (human)", "result": 26, "unit": "µM"}, {"measurement": "Kd", "setting": "RIPK4 (human)", "result": 16, "unit": "µM"}, {"measurement": "Kd", "setting": "CDC42BPA (human)", "result": 30, "unit": "µM"}, {"measurement": "Kd", "setting": "EPHA7 (human)", "result": 71, "unit": "nM"}, {"measurement": "Kd", "setting": "[1]", "result": 20, "unit": "nM"}, {"measurement": "Kd", "setting": "[2]", "result": 11, "unit": "nM"}, {"measurement": "Kd", "setting": "CDC42BPG (human)", "result": 4.4, "unit": "µM"}, {"measurement": "Kd", "setting": "[3]", "result": 230, "unit": "nM"}, {"measurement": "Kd", "setting": "ERN1 (human)", "result": 19, "unit": "µM"}, {"measurement": "Kd", "setting": "[4]", "result": 3, "unit": "nM"}, {"measurement": "Kd", "setting": "MAPK8 (human)", "result": 100, "unit": "nM"}, {"measurement": "Kd", "setting": "TNK2 (human)", "result": 8.7, "unit": "µM"}, {"measurement": "Kd", "setting": "EPHA1 (human)", "result": 140, "unit": "nM"}, {"measurement": "Kd", "setting": "[5]", "result": 14, "unit": "µM"}, {"measurement": "Kd", "setting": "MAP3K7 (human)", "result": 83, "unit": "nM"}, {"measurement": "Kd", "setting": "CSK (human)", "result": 700, "unit": "nM"}, {"measurement": "Kd", "setting": "PLK4 (human)", "result": 15, "unit": "µM"}, {"measurement": "Kd", "setting": "HIPK2 (human)", "result": 1000, "unit": "nM"}, {"measurement": "Kd", "setting": "MATK (human)", "result": 26, "unit": "µM"}, {"measurement": "Kd", "setting": "FLT3 (human)", "result": 4.2, "unit": "nM"}, {"measurement": "Kd", "setting": "HIPK4 (human)", "result": 34, "unit": "nM"}, {"measurement": "Kd", "setting": "MAPK14 (human)", "result": 38, "unit": "nM"}]}
